Assay results: patent US7943142B2, “Euglenoid derived alkaloid” (priority 2008, dated 2011)

What was measured:
[1] = test system: GH4C1 rat pituitary cells; assay: Cytotoxicity against GH4C1 rat pituitary tissue culture cells; format: cell-based
[2] = test system: Gomphonema parvum (diatom); assay: Algal growth (chlorophyll a) under euglenophycin exposure; format: cell-based; details: 0.3, 3 and 30 mg/L; chlorophyll a read daily for four days; FIG. 2
Description: (§1) Clonal isolates of five representative cyanoprokaryote, diatom, and green algae were grown in BG11 media at 28 C on a 14:10 L:D cycle. At mid-exponential phase growth, […] aliquots of each culture was transferred to 96-well plates. Carrier solvent (control) and euglenophycin toxin was added to three of more replicate vials (at 0, 300 ppb, 3 ppm, and 30 ppm) and growth was monitored for […].
(§2) To evaluate the euglenophycin against the growth rate of selected algal taxa. Cultures of five algal species grown in batch culture were exposed to the euglenophycin. The culture include Microcystis aeruginosa (cyanobacteria), Planktothrix (cyanobacteria), Gomphonema parvum (diatom), Scenedesmus dimorphus (green algae), and Oocystis polymorpha (green algae). The cultures were grown using 14:10 hour L:D cycles, in BG11 culture media. When the alga reached exponential phase, the cells were dispensed into Falcon 96-well tissue culture plates and were dosed with euglenophycin at 0, 0.3, 3 and 30 mg/L concentrations. Solvent blanks (acetone) were included in the control test. Readings of chlorophyll a were made on a BMG Labtech FLUOstar Omega spectrometer daily for four days.

[3] = test system: Microcystis aeruginosa (cyanobacteria); assay: as above; format: cell-based; details: 0.3, 3 and 30 mg/L; chlorophyll a read daily for four days; FIG. 2
Description: as §1, §2

[4] = test system: Oocystis polymorpha (green algae); assay: as above; format: cell-based; details: 0.3, 3 and 30 mg/L; chlorophyll a read daily for four days; FIG. 2
Description: as §1, §2

[5] = test system: Planktothrix (cyanobacteria); assay: as above; format: cell-based; details: 0.3, 3 and 30 mg/L; chlorophyll a read daily for four days; FIG. 2
Description: as §1, §2

[6] = test system: Scenedesmus dimorphus (green algae); assay: as above; format: cell-based; details: 0.3, 3 and 30 mg/L; chlorophyll a read daily for four days; FIG. 2
Description: as §1, §2

fish = assay: Fish bioassay (ichthyotoxicity); format: in vivo; details: purified toxin
Description: The toxic solvent extracts were subjected to HPLC analytical fractionation. Bioassay guided fractionation was used in all phases of separation to track sample activity and cytotoxic and/or ichthyotoxic extracts were identified. HPLC purification was carried out using a WATERS HPLC system (WATERS 2767 Sample Manager, 1525 Binary Pump, 510 pump, WATERS 2996 PDA and a WATERS ZQ Single Quadrature Mass Detector outfitted with an active flow splitter, switching valve using MASS LYNX software (Waters Corporation, Milford, Mass.). The HPLC/MS method was a water/acetone gradient with 0.2% TFA in both solvents. Extract was loaded onto a Phenomenex (Phenomenex Corporation, Torrance, Calif.) C18 LUNA 3 μm particle size, 250×4.6 mm column. The flow scheme conditions were: 1 mL/min flow rate, 90:10 Water/acetone (hold for 2 minutes). This was followed by a linear gradient over 20 minutes to 100% acetone. The acetone was held for 3 minutes prior to original flow conditions. Column temperature was held at 35° C.
NMR and mass spectral analysis provided unambiguous identification of the novel toxin. […] The euglenoids in culture appear to form the toxin independently of growth phase.

[7] = test system: Ht-29 (ATCC HTB-38) adenocarcinoma cell line; assay: Toxicity against adenocarcinoma cell line Ht-29 (MTS or MTT assay); format: cell-based; details: summary statement; test of Example 3 / FIG. 3
Description: Specifically, cancer cells were grown to mid-exponential growth phase, aliquots were added to tissue culture plates with carrier (control) and varying euglenophycin toxin (25, 50, 100 mg/L final concentration), with and without 5-fluorouracil and maintained in dimethyl sulfoxide. Growth was monitored by colorimetric change associated with respiration using MTS or MTT assay).

## CCC/C=C\CC/C=C/C=C/C1CCCC(CCCCO)N1 (centres unmarked) [euglenophycin]
[1]
  toxicity (cytotoxic activity) towards GH4C1 rat pituitary cells: toxicity
[2]
  effect on culture (chlorophyll a): negatively affected
[3]
  effect on culture (chlorophyll a): negatively affected
[4]
  effect on culture (chlorophyll a): negatively affected
[5]
  effect on culture (chlorophyll a): negatively affected
[6]
  effect on culture (chlorophyll a): negatively affected
fish
  fish mortality on re-exposure to the toxin: fish mortalities
[7]
  activity against cancerous cell lines: activity
